One test concerns the target T1, Histone deacetylase 8 (Homo sapiens, UniProt Q9BY41).
T1 sequence (Q9BY41 whole entry): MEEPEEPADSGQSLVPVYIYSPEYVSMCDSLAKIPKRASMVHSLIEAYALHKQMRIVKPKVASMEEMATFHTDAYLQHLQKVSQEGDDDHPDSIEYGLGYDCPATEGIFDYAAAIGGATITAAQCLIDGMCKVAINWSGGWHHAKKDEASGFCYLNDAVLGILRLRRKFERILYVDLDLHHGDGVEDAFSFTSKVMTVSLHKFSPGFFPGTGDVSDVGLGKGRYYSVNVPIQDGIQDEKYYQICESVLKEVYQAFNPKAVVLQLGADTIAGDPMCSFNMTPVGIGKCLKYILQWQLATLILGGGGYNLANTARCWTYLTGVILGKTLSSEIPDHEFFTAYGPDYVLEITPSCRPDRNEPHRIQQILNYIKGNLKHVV
Briefly: Inhibition of human recombinant HDAC8 using Boc-Lys-(Tfa)-AMC as substrate preincubated for 5 mins followed by substrate addition and measured after 90 mins by fluorescence based microplate reader analysis.

The subject of test [1] is THP-1. Briefly: Inhibition of Class IIa/8 HDAC in human THP-1 cells at 100 uM preincubated for 18 hrs followed by substrate addition and measured after 3 hrs by fluorescence based microplate reader assay relative to control. The format is cell-based. Particulars: time 21.0 hrs, values are per cent of control.
Test [2] concerns THP-1. Description: Inhibition of Class I/IIb HDAC in human THP-1 cells at 100 uM preincubated for 18 hrs followed by substrate addition and measured after 3 hrs by fluorescence based microplate reader assay relative to control. Particulars: time 21.0 hrs. The format is cell-based.
The target of a further test is Histone deacetylase 3 (Homo sapiens, UniProt O15379). Briefly: Inhibition of HDAC3 (unknown origin).
Chain of Histone deacetylase 3 (O15379 whole entry): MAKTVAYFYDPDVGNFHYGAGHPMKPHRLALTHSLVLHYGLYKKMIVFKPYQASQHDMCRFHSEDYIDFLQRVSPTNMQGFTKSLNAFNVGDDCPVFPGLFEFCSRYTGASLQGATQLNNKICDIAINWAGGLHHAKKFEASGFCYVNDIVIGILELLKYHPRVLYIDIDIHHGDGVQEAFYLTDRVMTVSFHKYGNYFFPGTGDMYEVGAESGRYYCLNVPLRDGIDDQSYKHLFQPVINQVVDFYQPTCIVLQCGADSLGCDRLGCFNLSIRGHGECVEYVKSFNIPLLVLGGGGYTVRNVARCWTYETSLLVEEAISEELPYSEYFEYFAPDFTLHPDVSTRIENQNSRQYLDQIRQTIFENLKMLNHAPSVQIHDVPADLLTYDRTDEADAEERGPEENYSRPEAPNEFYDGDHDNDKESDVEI
The subject of test [3] is THP-1. Description: Antiproliferative activity against human THP-1 cells assessed as reduction in cell viability at 100 uM incubated for 72 hrs by MTT assay relative to control. The format is functional.
Test [4] relates to THP-1. Description: cells. Particulars: Homo sapiens, THP-1, 72 h.
Description: Antiproliferative activity against human THP-1 cells assessed as inhibition of cell growth incubated for 72 hrs by MTT assay

The results in this text go back to ChEMBL document CHEMBL5537119 (Eur J Med Chem, 2024).

The term IC50 denotes the point on the concentration scale where inhibition reaches its midpoint. One may read the residual activity as what remains of the control signal, in per cent. A low value points to little activity left. One may read the inhibition as the relative decrease from the control value, in per cent. Turning to `O=C(NOCc1coc(-c2ccccc2)n1)c1ccc(-c2noc(C(F)(F)F)n2)cc1`, the IC50 on Histone deacetylase 8 is above 100 µM; on Histone deacetylase 3, above 100 µM; in the test with THP-1 [4], around 100 µM. In the test on THP-1 [1], this compound registered a residual activity of 76%. This compound also returned an inhibition with THP-1 [2] of 0%. Besides, in the test with THP-1 [3], the Activity is reported as 47%.
